Laboratory results published in patent US6737383B1, “Herbicidal oxadiazolidines” (priority 1999, dated 2004).

Experiments:
barnyardgrass = assay: Test C postemergence barnyardgrass; assay type: in vivo, Echinochloa crus-galli; details: 0 to 100 scale, 0 no effect, 100 complete control
Protocol: (§1) Compounds evaluated in this test were formulated in a non-phytotoxic solvent mixture which included a surfactant and applied to plants that were grown for various periods of time before treatment (postemergence application). A mixture of sandy loam soil and greenhouse potting mix in a 60:40 ratio was used for the postemergence test.
(§2) Plantings of these crops and weed species were adjusted to produce plants of appropriate size for the postemergence test. All plant species were grown using normal greenhouse practices. Crop and weed species include arrowleaf sida (Sida rhombifolia), barnyardgrass (Echinochloa crus-galli), cocklebur (Xanthium strumarium), common ragweed (Ambrosia elatior), corn (Zea mays), cotton (Gossypium hirsutum), eastern black nightshade (Solanum ptycanthum), fall panicum (Panicum dichotomiflorum), field bindweed (Convolvulus arvensis), giant foxtail (Setaria faberii), hairy beggarticks (Bidens pilosa), ivyleaf morningglory (Ipomoea hederacea), johnsongrass (Sorghum halepense), ladysthumb smartweed (Polygonum persicaria), lambsquarters (Chenopodium album), large crabgrass (Digitaria sanguinalis), purple nutsedge (Cyperus rotundus), redroot pigweed (Amaranthus retroflexus), soybean (Glycine max), surinam grass (Brachiaria decumbens), velvetleaf (Abutilon theophrasti) and wild poinsettia (Euphorbia heterophylla).
(§3) Treated plants and untreated controls were maintained in a greenhouse for approximately 14, to 21 days, after which all treated plants were compared to untreated controls and visually evaluated. Plant response ratings, summarized in Table C, were based upon a 0 to 100 scale where 0 was no effect and 100 was complete control. A dash response (−) means no test result.

surinam grass [1] = assay: Test C postemergence surinam grass; assay type: in vivo, Brachiaria decumbens; details: 0 to 100 scale, 0 no effect, 100 complete control
Protocol: as §1, §2, §3

ivyleaf morningglory = assay: Test C postemergence ivyleaf morningglory; assay type: in vivo, Ipomoea hederacea; details: 0 to 100 scale, 0 no effect, 100 complete control
Protocol: as §1, §2, §3

large crabgrass = assay: Test C postemergence large crabgrass; assay type: in vivo, Digitaria sanguinalis; details: 0 to 100 scale, 0 no effect, 100 complete control
Method in brief: (§4)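 Postemergence spray; formulation = non-phytotoxic solvent + surfactant; soil 60:40 sandy loam:greenhouse potting mix; greenhouse, ~14–21 d; visual rating vs untreated, 0–100 (100 = complete control).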

wild poinsettia = assay: Test C postemergence wild poinsettia; assay type: in vivo, Euphorbia heterophylla; details: 0 to 100 scale, 0 no effect, 100 complete control
Method in brief: as §4

cocklebur = assay: Test C postemergence cocklebur; assay type: in vivo, Xanthium strumarium; details: 0 to 100 scale, 0 no effect, 100 complete control
Method in brief: as §4

cotton = assay: Test C postemergence cotton; assay type: in vivo, Gossypium hirsutum; details: 0 to 100 scale, 0 no effect, 100 complete control
Method in brief: as §4

giant foxtail = assay: Test C postemergence giant foxtail; assay type: in vivo, Setaria faberii; details: 0 to 100 scale, 0 no effect, 100 complete control
Method in brief: as §4

morningglory = assay: Test A morningglory; assay type: in vivo, Ipomoea spp.; details: 0 to 10 scale where 0 is no effect and 10 is complete control
Method in brief: (§5)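 Visual injury score, 0 (no effect) to 10 (complete control), vs untreated controls at ~11 d in greenhouse. Pre: soil drench on sandy loam. Post: spray to runoff, 1–2 leaf stage.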

velvetleaf = assay: Test A velvetleaf; assay type: in vivo, Abutilon theophrasti; details: 0 to 10 scale where 0 is no effect and 10 is complete control
Method in brief: as §5

crabgrass = assay: Test A crabgrass; assay type: in vivo, Digitaria spp.; details: 0 to 10 scale where 0 is no effect and 10 is complete control
Method in brief: as §5

Green foxtail [2] = assay: Test D green foxtail; assay type: in vivo; details: Rate 64 g/ha, Postemergence; 0 to 100 scale, 0 no injury, 100 complete control
common groundsel = assay: Test D common groundsel; assay type: in vivo, Senecio vulgaris; details: Rate 64 g/ha, Postemergence; 0 to 100 scale, 0 no injury, 100 complete control
surinam grass [3] = assay: Test D surinam grass; assay type: in vivo, Brachiaria decumbens; details: Rate 64 g/ha, Postemergence; 0 to 100 scale, 0 no injury, 100 complete control
tall mallow = assay: Test D tall mallow; assay type: in vivo, Malva sylvestris; details: Rate 64 g/ha, Postemergence; 0 to 100 scale, 0 no injury, 100 complete control
itchgrass = assay: Test D itchgrass; assay type: in vivo, Rottboellia exaltata; details: Rate 64 g/ha, Postemergence; 0 to 100 scale, 0 no injury, 100 complete control
common pursiane = assay: Test D common purslane; assay type: in vivo, Portulaca oleracea; details: Rate 64 g/ha, Postemergence; 0 to 100 scale, 0 no injury, 100 complete control
bermuda-grass = assay: Test D bermudagrass; assay type: in vivo, Cynodon dactylon; details: Rate 64 g/ha, Postemergence; 0 to 100 scale, 0 no injury, 100 complete control
Spanishneedles = assay: Test D Spanishneedles; assay type: in vivo, Bidens bipinnata; details: Rate 64 g/ha, Postemergence; 0 to 100 scale, 0 no injury, 100 complete control
pitted morningglory = assay: Test D pitted morningglory; assay type: in vivo, Ipomoea lacunosa; details: Rate 64 g/ha, Postemergence; 0 to 100 scale, 0 no injury, 100 complete control
Green foxtail [4] = assay: Test D green foxtail; assay type: in vivo; details: Rate 64 g/ha, Postemergence; 0 to 100 scale, 0 no injury, 100 complete control; remark: listed apart in the source

SMILES | Plant response rating, Barnyardgrass (barnyardgrass; Rate 140 g/ha) | Plant response rating, Barnyardgrass (barnyardgrass; Rate 280 g/ha) | Plant response rating, Barnyardgrass (barnyardgrass; Rate 560 g/ha) | Plant response rating, Barnyardgrass (barnyardgrass; Rate 1120 g/ha) | Plant response rating, Surinam grass (surinam grass [1]; Rate 140 g/ha) | Plant response rating, Surinam grass (surinam grass [1]; Rate 280 g/ha) | Plant response rating, Surinam grass (surinam grass [1]; Rate 560 g/ha) | Plant response rating, Surinam grass (surinam grass [1]; Rate 1120 g/ha) | Plant response rating I. morningglory (ivyleaf morningglory; Rate 140 g/ha) | Plant response rating I. morningglory (ivyleaf morningglory; Rate 280 g/ha) | Plant response rating I. morningglory (ivyleaf morningglory; Rate 560 g/ha) | Plant response rating I. morningglory (ivyleaf morningglory; Rate 1120 g/ha) | Plant response rating, Large crabgrass (large crabgrass; Rate 140 g/ha) | Plant response rating, Large crabgrass (large crabgrass; Rate 280 g/ha) | Plant response rating, Large crabgrass (large crabgrass; Rate 560 g/ha) | Plant response rating, Large crabgrass (large crabgrass; Rate 1120 g/ha) | Plant response rating Wild poinsettia (wild poinsettia; Rate 140 g/ha) | Plant response rating Wild poinsettia (wild poinsettia; Rate 280 g/ha) | Plant response rating Wild poinsettia (wild poinsettia; Rate 560 g/ha) | Plant response rating Wild poinsettia (wild poinsettia; Rate 1120 g/ha) | other results
C=CCn1c(=O)on(C(=O)N(c2ccccc2)C(C)C)c1=O [Compound 93] | 70 | 90 | 90 | 95 | 0 | 45 | 50 | 85 | 5 | 10 | 10 | 70 | 0 | 30 | 50 | 95 | 0 | 0 | 30 | 70 | Plant response rating, Cocklebur (cocklebur; Rate 140 g/ha): 0; Plant response rating, Cocklebur (cocklebur; Rate 280 g/ha): 35; Plant response rating, Cocklebur (cocklebur; Rate 560 g/ha): 40; Plant response rating Cotton (cotton; Rate 140 g/ha): 15; Plant response rating Cotton (cotton; Rate 280 g/ha): 30; Plant response rating Cotton (cotton; Rate 560 g/ha): 70; Plant response rating Cotton (cotton; Rate 1120 g/ha): 85; Plant response rating, Giant foxtail (giant foxtail; Rate 140 g/ha): 10; Plant response rating, Giant foxtail (giant foxtail; Rate 280 g/ha): 55; Plant response rating, Giant foxtail (giant foxtail; Rate 560 g/ha): 80; Plant response rating, Giant foxtail (giant foxtail; Rate 1120 g/ha): 95
CC(C)N(C(=O)n1oc(=O)n(C2CCCCC2C(F)(F)F)c1=O)c1ccc(F)cc1 (stereo not shown) [Compound 99] | – | – | – | – | – | – | – | – | – | – | – | – | – | – | – | – | – | – | – | – | Plant response rating, Morningglory (morningglory; Postemergence, Rate 1000 g/ha): 2; Plant response rating, Morningglory (morningglory; Pre-emergence, Rate 2000 g/ha): 2; Plant response rating, Velvetleaf (velvetleaf; Postemergence, Rate 1000 g/ha): 2; Plant response rating, Velvetleaf (velvetleaf; Pre-emergence, Rate 2000 g/ha): 3; Plant response rating, Crabgrass (crabgrass; Postemergence, Rate 1000 g/ha): 7; Plant response rating, Crabgrass (crabgrass; Pre-emergence, Rate 2000 g/ha): 10
CC(C)N(C(=O)n1oc(=O)n(Cc2cccs2)c1=O)c1ccccc1 [Compound 103] | 0 | 0 | 10 | 80 | 0 | 0 | 0 | 5 | 0 | 0 | 0 | 10 | 0 | 0 | 0 | 10 | 0 | 0 | 10 | 60 | Plant response rating, Cocklebur (cocklebur; Rate 140 g/ha): 0; Plant response rating, Cocklebur (cocklebur; Rate 280 g/ha): 0; Plant response rating, Cocklebur (cocklebur; Rate 560 g/ha): 0; Plant response rating, Cocklebur (cocklebur; Rate 1120 g/ha): 0; Plant response rating Cotton (cotton; Rate 140 g/ha): 0; Plant response rating Cotton (cotton; Rate 280 g/ha): 20; Plant response rating Cotton (cotton; Rate 560 g/ha): 40; Plant response rating Cotton (cotton; Rate 1120 g/ha): 80; Plant response rating, Giant foxtail (giant foxtail; Rate 140 g/ha): 0; Plant response rating, Giant foxtail (giant foxtail; Rate 280 g/ha): 0; Plant response rating, Giant foxtail (giant foxtail; Rate 560 g/ha): 0; Plant response rating, Giant foxtail (giant foxtail; Rate 1120 g/ha): 40
CC(C)Cn1c(=O)on(C(=O)N(c2ccc(F)cc2)C(C)C)c1=O [Compound 169] | – | – | – | – | – | – | – | – | – | – | – | – | – | – | – | – | – | – | – | – | Plant response rating, Green foxtail (Green foxtail [2]): 100; Plant response rating, Com. groundsel (common groundsel): 65; Surinam grass plant response rating (surinam grass [3]): 65; Tall Mallow plant response rating (tall mallow): 0; Plant response rating, Itchgrass (itchgrass): 0; Plant response rating, C. purslane (common pursiane): 0; Plant response rating, Bermudagrass (bermuda-grass): 100; Spanishneedles plant response rating (Spanishneedles): 0; Plant response rating, P. morninglory (pitted morningglory): 0; Green foxtail plant response rating (Green foxtail [4]): 100
